The values below come from article PMC5457731, “Molecular cloning, expression, and characterization of four novel thermo-alkaliphilic enzymes retrieved from a metagenomic library” (Biotechnology for Biofuels, 2017).

Common to all, as to test: pNP release at […] nm, Lineweaver-Burk
Holding throughout (settings): 50 mM Tris-HCl pH 7.5, 40 °C, 15 min

For assay [1], the system named is T1, protein 1 (gene 1 product, fosmid NT2-2).
T1 construct: full-length, pET28b(+) His-tags at N and C termini, E. coli Origami2(DE3) pLysS, ~116 kDa, gene amplicon 3146 bp
In kind it is biochemical, uncultured bacterium.

The subject of assay [2] is T2, protein 2 (gene 2 product, fosmid T5-5).
T2 construct: full-length, pET28b(+) His-tags at N and C termini, E. coli Origami2(DE3) pLysS, ~85 kDa, gene amplicon 2410 bp
In kind it is biochemical, uncultured bacterium.

Assay [3] relates to T3, protein 6 (gene 6 product, fosmid NT18-17).
T3 construct: full-length, pET28b(+) His-tags at N and C termini, E. coli Origami2(DE3) pLysS, ~22 kDa, gene amplicon 673 bp; alpha-glucosidase assignment unusual, host contaminant possible
In kind it is biochemical.

Assay [4] deals with T4, protein 5 (gene 5 product, fosmid 10BT).
T4 construct: full-length, pET28b(+) His-tags at N and C termini, E. coli Origami2(DE3) pLysS, ~45 kDa, gene amplicon 1262 bp; alpha-glucosidase assignment unusual, host contaminant possible
The assay is classed as biochemical.

Structures are written as SMILES.

In the case of `O=[N+]([O-])c1ccc(O[C@@H]2O[C@H](CO)[C@H](O)[C@H](O)[C@H]2O)cc1` [pNP-β-D-galactopyranoside], the Km in assay [1] is 100 µM.
As to `O=[N+]([O-])c1ccc(O[C@@H]2OC[C@@H](O)[C@H](O)[C@H]2O)cc1` [pNP-β-D-xylopyranoside], the Km in assay [2] came out at 1000 µM.
In the case of `O=[N+]([O-])c1ccc(O[C@H]2O[C@H](CO)[C@@H](O)[C@H](O)[C@H]2O)cc1` [pNP-α-D-glucopyranoside], the values for the Km in assay [3] and in assay [4] were 21400 µM and 7400 µM, respectively.
`O=[N+]([O-])c1ccc(O[C@@H]2OC[C@H](O)[C@H](O)[C@H]2O)cc1` [pNP-α-L-arabinopyranoside]: the Km in assay [2] stood at 300 µM.
